Test results as given in US20050159352A1, “Use of monocarboxylate transporter protein for thyroid hormone transport” (priority 2002, published 2005).
Like-named read-outs stand apart in the source and are kept apart here.

Assays:
MCT8 [1] = target: T1, MCT8 (Rattus norvegicus, UniProt Q8K1P8, G227D/I169T/S199P/T171I); experiment: Inhibition of uptake of labeled T4 and T3 in MCT8 cRNA-injected oocytes by putative competitors; assay type: cell-based; set-up: the stop codon of MCT8 was removed by performing PCR using the same sense primer as above; expressed in transfected cells; host or cells: Xenopus laevis oocytes injected with cRNA transcribed from pGEM-HeJuel
Protocol: (§1) Oocytes were isolated and allowed to recover overnight at 18 C in modified Barth's solution containing 20 IU/ml penicillin and 20 gg/ml streptomycin as described before (23). […] Uninjected or water injected oocytes were used as controls.
Transport measurements in oocytes—Oocytes were washed and preincubated at 18 C in standard uptake solution (100 mM NaCl, 2 mM KCl, 1 mM CaCl2, 1 mM MgCl2, 10 mM HEPES, and 10 mM Tris, pH 7.5). […] The possible Na^+ dependence of transport was tested by preincubation and incubation in Na^+-free uptake solution in which NaCl was replaced by choline chloride. The influence of the temperature on the uptake rate was tested by the incubation of oocytes with uptake solutions at different temperatures between 4 and 37 C. […] The incubation was stopped by aspiration of the medium, and oocytes were washed 4 times at 4 C with standard uptake solution containing 0.1% BSA.

MCT8 [2] = target: T1, MCT8; experiment: Transport (uptake) of radioactive ligands by MCT8 expressed in X. laevis oocytes; assay type: cell-based; set-up: the stop codon of MCT8 was removed by performing PCR using the same sense primer as above; expressed in transfected cells; host or cells: Xenopus laevis oocytes injected with cRNA transcribed from pGEM-HeJuel; conditions: 0.23 ng MCT8 cRNA injected; 10 nM ligand, 2 min, 25 C
MCT8 [3] = target: T1, MCT8; experiment: as above; assay type: cell-based; set-up: the stop codon of MCT8 was removed by performing PCR using the same sense primer as above; expressed in transfected cells; host or cells: Xenopus laevis oocytes injected with cRNA transcribed from pGEM-HeJuel
Protocol: Xenopus oocytes were isolated and injected with 4.6 ng rat MCTS cRNA. After 3 days, groups of 10 injected or uninjected oocytes were incubated for 60 mm at 25 C with 10 nM radioactive iodothyronines in 0.1 ml medium. Uptake of iodothyronines was determined as previously described (18).
as §1
Transport measurements in oocytes—Oocytes were washed and preincubated at 18 C in standard uptake solution (100 mM NaCl, 2 mM KCl, 1 mM CaCl2, 1 mM MgCl2, 10 mM HEPES, and 10 mM Tris, pH 7.5). Usually, transport was tested by incubation of groups of 5-10 oocytes for 2-60 mm at 25 C with 10 nM [1251]iodothyronines or 10 μM [3H]amino acids in 0.1 ml standard uptake solution. The possible Na^+ dependence of transport was tested by preincubation and incubation in Na^+-free uptake solution in which NaCl was replaced by choline chloride. The influence of the temperature on the uptake rate was tested by the incubation of oocytes with uptake solutions at different temperatures between 4 and 37 C. […] The incubation was stopped by aspiration of the medium, and oocytes were washed 4 times at 4 C with standard uptake solution containing 0.1% BSA.

MCT8 [4] = target: T1, MCT8; experiment: Transport kinetics of MCT8-mediated iodothyronine uptake in oocytes (Michaelis-Menten); set-up: dose or concentration left out as unconfirmed; conditions: net transport
Protocol: Apparent Km values were calculated by fitting the plot of uptake rate (v) versus ligand concentration (5) to the Michaelis Menten equation: v=Vmax/(1+Km/S), wherein Vmax is the maximum uptake rate, and Km the Michaelis constant. Calculations were performed using the Slide Write Plus program version 5.01 (Advanced Graphics Software).

rat MCT1 = target: T2, rat MCT1 (Rattus norvegicus, UniProt P53987); conditions: data not shown
T2 sequence (P53987 1-494): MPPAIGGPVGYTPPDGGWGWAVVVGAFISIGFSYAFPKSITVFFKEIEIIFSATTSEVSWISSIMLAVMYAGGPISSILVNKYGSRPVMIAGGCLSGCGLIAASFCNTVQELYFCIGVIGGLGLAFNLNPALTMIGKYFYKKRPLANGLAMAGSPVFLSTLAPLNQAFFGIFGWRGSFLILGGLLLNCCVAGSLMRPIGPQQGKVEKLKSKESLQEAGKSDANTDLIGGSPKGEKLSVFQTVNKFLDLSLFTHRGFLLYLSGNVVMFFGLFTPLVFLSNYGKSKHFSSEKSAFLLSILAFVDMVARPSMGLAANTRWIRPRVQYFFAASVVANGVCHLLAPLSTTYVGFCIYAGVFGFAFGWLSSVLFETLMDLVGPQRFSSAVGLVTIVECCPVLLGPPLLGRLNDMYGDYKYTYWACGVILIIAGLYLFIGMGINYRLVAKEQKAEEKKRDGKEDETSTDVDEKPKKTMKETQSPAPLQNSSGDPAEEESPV

T1 sequence (Q8K1P8 whole entry I169T/T171I/S199P/G227D): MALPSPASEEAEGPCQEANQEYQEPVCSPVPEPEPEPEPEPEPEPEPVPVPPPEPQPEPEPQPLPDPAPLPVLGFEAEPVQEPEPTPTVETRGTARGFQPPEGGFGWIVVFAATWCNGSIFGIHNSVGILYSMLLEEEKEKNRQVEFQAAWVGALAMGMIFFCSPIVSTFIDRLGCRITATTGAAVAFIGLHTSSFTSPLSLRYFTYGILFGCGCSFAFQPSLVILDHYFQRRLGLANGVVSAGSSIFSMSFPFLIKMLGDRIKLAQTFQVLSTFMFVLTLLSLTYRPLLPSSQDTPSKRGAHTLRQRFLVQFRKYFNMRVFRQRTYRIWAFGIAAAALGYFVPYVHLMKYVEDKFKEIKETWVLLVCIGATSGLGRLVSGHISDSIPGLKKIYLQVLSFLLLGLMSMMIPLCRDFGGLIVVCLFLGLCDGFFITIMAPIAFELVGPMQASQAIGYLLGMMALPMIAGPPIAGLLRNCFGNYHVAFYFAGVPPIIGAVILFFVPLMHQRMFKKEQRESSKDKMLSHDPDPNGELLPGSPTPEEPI

N[C@@H](Cc1cc(I)c(Oc2cc(I)c(O)c(I)c2)c(I)c1)C(=O)O [T4, 3,3′,5,5′-tetraiodothyronine]
inhibition at 10 µM (MCT8 [1]; labeled T4 10 nm, inhibitor 10 μM, MCT8 cRNA-injected oocytes, read-out: % inhibition ± SEM of uptake of T4): 69 ± 7%
inhibition at 10 µM (MCT8 [1]; read-out: % inhibition ± SEM of uptake of T3): 26 ± 7%
Inhibition of labeled T4 and T3 uptake by MCT8 (in words) (MCT8 [1]; unlabeled competitor, taurocholate and probenecid data not shown): potently inhibited
Increase in transport at lowest amount of MCT8 cRNA (MCT8 [2]): 7.3 fold
Substrate specificity: transport by MCT8 (in words) (MCT8 [3]; 10 nM iodothyronines or amino acids, MCT8 cRNA-injected vs uninjected oocytes): rapid uptake
Uptake into oocytes at 4 C (in words) (MCT8 [3]; 10 nM, 2 min, 4 C, marked increases at 15, 25 and 37 C): significant uptake
Na+ dependence of transport by MCT8 (MCT8 [3]; NaCl replaced by choline chloride): modest but consistent inhibition
Increase in initial uptake compared with uninjected oocytes (MCT8 [3]; oocytes injected with 4.6 ng MCT8 cRNA, 10 nM ligand, 25 C): ~10 fold
Saturability of transport by MCT8 (MCT8 [4]): saturable
Transport in rat MCT1 cRNA-injected oocytes compared to control oocytes (in words) (rat MCT1): no additional uptake
